Where two headings read alike, the source gives them in different places.

The target in assay [1] is HCV NS3/4A protease genotype 1b (Hepatitis C virus genotype 1b, UniProt P26663). As to the kind of experiment: HCV NS3/4A protease time-resolved fluorescence (TRF) assay, Ki against genotype 1b. Type of assay: biochemical. Particulars: IC50 [gt-1b] (nM), NS3/4A genotype 1b, enzyme 0.2 nM. An outline of the steps:
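Ki was converted from fitted IC50 using IC50=Ki(1+[S]/KM) and 25 nM substrate. Protease (genotype 1b 0.2 nM, A156T 0.4 nM, 3a 0.025 nM) and compound were pre-mixed 30 min in pH 7.5 HEPES/NaCl/glycerol/DTT buffer. Cleavage then proceeded 2.5 h at room temperature, detected by time-resolved europium fluorescence (340/615 nm).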

The subject of a further assay is HCV genotype 1b replicon. The assay can be described thus: HCV replicon assay, genotype 1b replicon EC50. Type of assay: cell-based, Hepatitis C virus. To be noted: Hepatitis C virus, genotype 1b replicon, read-out: EC50 [gt-1b]. An outline of the steps: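 Compound dilution series incubated 24-48 h, G418 absent, with HCV genotype 1b replicon cell lines kept under G418 selection beforehand. Luciferase signal or replicon RNA, by ^32P hybridization/protection or TaqMan normalized to cyclophilin A, was measured after washing and lysis. Four-parameter fitting against DMSO control gave EC50.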

In assay [1], `CC(C)COC(=O)N[C@H]1CCCCC/C=C\[C@@H]2C[C@@]2(C(=O)NS(=O)(=O)C2(C)CC2)NC(=O)[C@@H]2C[C@]3(CCc4c(c(C5CC5)nc5ccc(F)cc45)O3)CN2C1=O` [Example 144, 2-methylpropyl [(2R,6S,12Z,13aS,14aR,16aS)-5′-cyclopropyl-9′-fluoro-14a-{[(1-methylcyclopropyl)sulfonyl]carbamoyl}-5,16-dioxo-1,1′,2′,5,6,7,8,9,10,11,13a,14,14a,15,16,16a-hexadecahydrospiro[cyclopropa[e]pyrrolo[1,2-a][1,4]diazacyclopentadecine-2,3′-pyrano[2,3-c]quinolin]-6-yl]carbamate] yielded an IC50 of 0.007 nM. Also, in the assay with HCV genotype 1b replicon, the EC50 amounted to 1020 pM.
The like results for `CC1(S(=O)(=O)NC(=O)[C@@]23C[C@H]2/C=C\CCCCC[C@H](NC(=O)OC2CCCC2)C(=O)N2C[C@@]4(CCc5c(c(C6CC6)nc6ccc(F)cc56)O4)C[C@H]2C(=O)N3)CC1` [Example 145, cyclopentyl [(2R,6S,12Z,13aS,14aR,16aS)-5′-cyclopropyl-9′-fluoro-14a-{[(1-methylcyclopropyl)sulfonyl]carbamoyl}-5,16-dioxo-1,1′,2′,5,6,7,8,9,10,11,13a,14,14a,15,16,16a-hexadecahydrospiro[cyclopropa[e]pyrrolo[1,2-a][1,4]diazacyclopentadecine-2,3′-pyrano[2,3-c]quinolin]-6-yl]carbamate] were, in that order, 0.006 nM and 1160 pM.
As to `Cc1nc2ccc(OC(F)(F)F)cc2c2c1O[C@]1(CC2)C[C@H]2C(=O)N[C@]3(C(=O)NS(=O)(=O)C4(C)CC4)C[C@H]3/C=C\CCCCC[C@H](NC(=O)OCC3CCCC3)C(=O)N2C1` [Example 146, cyclopentylmethyl [(2R,6S,12Z,13aS,14aR,16aS)-5′-methyl-14a-{[(1-methylcyclopropyl)sulfonyl]carbamoyl}-5,16-dioxo-9′-(trifluoromethoxy)-1,1′,2′,5,6,7,8,9,10,11,13a,14,14a,15,16,16a-hexadecahydrospiro[cyclopropa[e]pyrrolo[1,2-a][1,4]diazacyclopentadecine-2,3′-pyrano[2,3-c]quinolin]-6-yl]carbamate], 0.03 nM corresponded to half-maximal inhibition in assay [1] (IC50). Also, in the assay with HCV genotype 1b replicon, the EC50 stood at 11800 pM.
On the same counts, the results for `Cc1nc2c(F)cccc2c2c1O[C@]1(CC2)C[C@H]2C(=O)N[C@]3(C(=O)NS(=O)(=O)C4(C)CC4)C[C@H]3/C=C\CCCCC[C@H](NC(=O)OCC(C)C)C(=O)N2C1` [Example 147, 2-methylpropyl [(2R,6S,12Z,13aS,14aR,16aS)-7′-fluoro-5′-methyl-14a-{[(1-methylcyclopropyl)sulfonyl]carbamoyl}-5,16-dioxo-1,1′,2′,5,6,7,8,9,10,11,13a,14,14a,15,16,16a-hexadecahydrospiro[cyclopropa[e]pyrrolo[1,2-a][1,4]diazacyclopentadecine-2,3′-pyrano[2,3-c]quinolin]-6-yl]carbamate] are 0.01 nM and 1050 pM.
Regarding `CC1(S(=O)(=O)NC(=O)[C@@]23C[C@H]2/C=C\CCCCC[C@H](NC(=O)OC2CCCC2)C(=O)N2C[C@@]4(CCc5c(c(C(F)(F)F)nc6ccccc56)O4)C[C@H]2C(=O)N3)CC1` [Example 148, cyclopentyl [(2R,6S,12Z,13aS,14aR,16aS)-14a-{[(1-methylcyclopropyl)sulfonyl]carbamoyl}-5,16-dioxo-5′-(trifluoromethyl)-1,1′,2′,5,6,7,8,9,10,11,13a,14,14a,15,16,16a-hexadecahydrospiro[cyclopropa[e]pyrrolo[1,2-a][1,4]diazacyclopentadecine-2,3′-pyrano[2,3-c]quinolin]-6-yl]carbamate], in assay [1] (K+ salt), the IC50 worked out at 0.011 nM. Moreover, in the assay on HCV genotype 1b replicon (K+ salt), the EC50 is 195 pM.
`Cc1nc2ccccc2c2c1O[C@@]1(C[C@H]3C(=O)N[C@]4(C(=O)NS(=O)(=O)C5(C)CC5)C[C@H]4/C=C\CCCCC[C@H](NC(=O)OC4CCCC4)C(=O)N3C1)CC2(F)F` [Example 149, cyclopentyl [(2S,6S,12Z,13aS,14aR,16aS)-1′,1′-difluoro-5′-methyl-14a-{[(1-methylcyclopropyl)sulfonyl]carbamoyl}-5,16-dioxo-1,1′,2′,5,6,7,8,9,10,11,13a,14,14a,15,16,16a-hexadecahydrospiro[cyclopropa[e]pyrrolo[1,2-a][1,4]diazacyclopentadecine-2,3′-pyrano[2,3-c]quinolin]-6-yl]carbamate]: in assay [1], the IC50 was 0.022 nM. In addition, in the assay with HCV genotype 1b replicon, the EC50 came to 195 pM.
On the same counts, the results for `CC1(S(=O)(=O)NC(=O)[C@@]23C[C@H]2/C=C\CCCCC[C@H](NC(=O)OC2CCCC2)C(=O)N2C[C@@]4(CCc5c(c(C6CC6)nc6c(F)cccc56)O4)C[C@H]2C(=O)N3)CC1` [Example 150, cyclopentyl [(2R,6S,12Z,13aS,14aR,16aS)-5′-cyclopropyl-7′-fluoro-14a-{[(1-methylcyclopropyl)sulfonyl]carbamoyl}-5,16-dioxo-1,1′,2′,5,6,7,8,9,10,11,13a,14,14a,15,16,16a-hexadecahydrospiro[cyclopropa[e]pyrrolo[1,2-a][1,4]diazacyclopentadecine-2,3′-pyrano[2,3-c]quinolin]-6-yl]carbamate] are 0.013 nM and 195 pM.
Turning to `CC(C)COC(=O)N[C@H]1CCCCC/C=C\[C@@H]2C[C@@]2(C(=O)NS(=O)(=O)C2(C)CC2)NC(=O)[C@@H]2C[C@]3(CCc4c(c(C5CC5)nc5c(F)cccc45)O3)CN2C1=O` [Example 151, 2-methylpropyl [(2R,6S,12Z,13aS,14aR,16aS)-5′-cyclopropyl-7′-fluoro-14a-{[(1-methylcyclopropyl)sulfonyl]carbamoyl}-5,16-dioxo-1,1′,2′,5,6,7,8,9,10,11,13a,14,14a,15,16,16a-hexadecahydrospiro[cyclopropa[e]pyrrolo[1,2-a][1,4]diazacyclopentadecine-2,3′-pyrano[2,3-c]quinolin]-6-yl]carbamate], the IC50 in assay [1] (K+ salt) came to 0.014 nM. Moreover, the EC50 with HCV genotype 1b replicon (K+ salt) is 1770 pM.
The like results for `COc1ccc2nc(C3CC3)c3c(c2c1)CC[C@]1(C[C@H]2C(=O)N[C@]4(C(=O)NS(=O)(=O)C5(C)CC5)C[C@H]4/C=C\CCCCC[C@H](NC(=O)OC4(C)CCC4)C(=O)N2C1)O3` [Example 152, 1-methylcyclobutyl [(2R,6S,12Z,13aS,14aR,16aS)-5′-cyclopropyl-9′-methoxy-14a-{[(1-methylcyclopropyl)sulfonyl]carbamoyl}-5,16-dioxo-1,1′,2′,5,6,7,8,9,10,11,13a,14,14a,15,16,16a-hexadecahydrospiro[cyclopropa[e]pyrrolo[1,2-a][1,4]diazacyclopentadecine-2,3′-pyrano[2,3-c]quinolin]-6-yl]carbamate] were, in that order, 0.014 nM and 729 pM.
The like results for `COc1ccc2nc(C3CC3)c3c(c2c1)CC[C@]1(C[C@H]2C(=O)N[C@]4(C(=O)NS(=O)(=O)C5(C)CC5)C[C@H]4/C=C\CCCCC[C@H](NC(=O)OCC(C)(C)C)C(=O)N2C1)O3` [Example 153, 2,2-dimethylpropyl [(2R,6S,12Z,13aS,14aR,16aS)-5′-cyclopropyl-9′-methoxy-14a-{[(1-methylcyclopropyl)sulfonyl]carbamoyl}-5,16-dioxo-1,1′,2′,5,6,7,8,9,10,11,13a,14,14a,15,16,16a-hexadecahydrospiro[cyclopropa[e]pyrrolo[1,2-a][1,4]diazacyclopentadecine-2,3′-pyrano[2,3-c]quinolin]-6-yl]carbamate] were, in that order, 0.014 nM and 1860 pM.
Consider `COc1ccc2nc(C(C)C)c3c(c2c1)CC[C@]1(C[C@H]2C(=O)N[C@]4(C(=O)NS(=O)(=O)C5(C)CC5)C[C@H]4/C=C\CCCCC[C@H](NC(=O)OCC(C)C)C(=O)N2C1)O3` [Example 154, 2-methylpropyl [(2R,6S,12Z,13aS,14aR,16aS)-9′-methoxy-14a-{[(1-methylcyclopropyl)sulfonyl]carbamoyl}-5,16-dioxo-5′-(propan-2-yl)-1,1′,2′,5,6,7,8,9,10,11,13a,14,14a,15,16,16a-hexadecahydrospiro[cyclopropa[e]pyrrolo[1,2-a][1,4]diazacyclopentadecine-2,3′-pyrano[2,3-c]quinolin]-6-yl]carbamate], for which the IC50 in assay [1] came out at 0.014 nM. Besides, the EC50 with HCV genotype 1b replicon came out at 1000 pM.
In assay [1], `COc1ccc2nc(C(C)C)c3c(c2c1)CC[C@]1(C[C@H]2C(=O)N[C@]4(C(=O)NS(=O)(=O)C5(C)CC5)C[C@H]4/C=C\CCCCC[C@H](NC(=O)OC4CCCC4)C(=O)N2C1)O3` [Example 155, cyclopentyl [(2R,6S,12Z,13aS,14aR,16aS)-9′-methoxy-14a-{[(1-methylcyclopropyl)sulfonyl]carbamoyl}-5,16-dioxo-5′-(propan-2-yl)-1,1′,2′,5,6,7,8,9,10,11,13a,14,14a,15,16,16a-hexadecahydrospiro[cyclopropa[e]pyrrolo[1,2-a][1,4]diazacyclopentadecine-2,3′-pyrano[2,3-c]quinolin]-6-yl]carbamate] displayed an IC50 of 0.015 nM. Further, in the assay with HCV genotype 1b replicon, the EC50 is 1170 pM.
Consider `CC(C)OC(=O)N[C@H]1CCCCC/C=C\[C@@H]2C[C@@]2(C(=O)NS(=O)(=O)C2(C)CC2)NC(=O)[C@@H]2C[C@]3(CCc4c(c(C(F)(F)F)nc5ccccc45)O3)CN2C1=O` [Example 157, propan-2-yl [(2R,6S,12Z,13aS,14aR,16aS)-14a-{[(1-methylcyclopropyl)sulfonyl]carbamoyl}-5,16-dioxo-5′-(trifluoromethyl)-1,1′,2′,5,6,7,8,9,10,11,13a,14,14a,15,16,16a-hexadecahydrospiro[cyclopropa[e]pyrrolo[1,2-a][1,4]diazacyclopentadecine-2,3′-pyrano[2,3-c]quinolin]-6-yl]carbamate], for which inhibition in assay [1] was half-maximal at 0.02 nM (IC50). In addition, in the assay on HCV genotype 1b replicon, the EC50 is 1720 pM.

These data come from US8987195B2 (priority 2012, dated 2015).
